Measured values from patent US7968526B2, “Antisense oligonucleotides directed to ribonucleotide reductase R2 and uses thereof in the treatment of cancer” (Lorus Therapeutics Inc., priority 2003, dated 2011).
“Also recorded” adds a separate entry of the source.

Columns and labels:
Assay type in all cases: in vivo, human cells in mice
[1] = system: PC-3 human prostatic cancer cells; test: PC-3 prostatic tumour xenograft in SCID mice, combination with mitoxantrone (1.4); conditions: PC-3, SCID mice; SEQ ID NO:1 10 mg/kg i.v. every other day 18 times; mitoxantrone 2 mg/kg i.v. once
Procedure: After 52 days the mice were sacrificed and the tumours weighed. […] In both experiments, PC-3 human prostatic cancer cells (1×10^7 cells in 100 μl of PBS) were subcutaneously injected into the right flank of 6-7 weeks old male SCID mice. After the size of tumour reached an approximate volume of 50 mm^3, 14 days post tumour cell injection, SEQ ID NO: 1 was administered by bolus infusion into the tail vein every other day at 10 mg/kg 18 times (FIG. 4A) or 17 times (FIG. 4B), respectively. Control animals received saline alone for the same period. Antitumour effect of SEQ ID NO:1 was further compared to that of mitoxantrone (novantrone) alone or in combination. Mitoxantrone was administered intravenously once at the beginning of the treatments at a dose of 2 mg/kg (FIG. 4A) or once a week for four weeks at a reduced dose of 0.8 mg/kg (FIG. 4B). All treatments were stopped at day 50 (FIG. 4A) or 48 (FIG. 4B), respectively. A day after the last treatment, tumours were excised from the animals and their weights were measured. […] In both experiments, DU145 human prostatic cancer cells (1×10^7 cells in 100 μl of PBS) were subcutaneously injected into the right flank of 6-7 weeks old male SCID mice. After the size of tumour reached an approximate volume of 50 mm^3, 13 (FIG. 5A) or 11 (FIG. 5B) days post tumour cell injection, SEQ ID NO:1 was administered by bolus infusion into the tail vein every other day at 10 mg/kg 15 times (FIG. 5A) or 14 times (FIG. 5B), respectively. Control animals received saline alone for the same period. Antitumour effect of SEQ ID NO:1 was further compared to that of mitoxantrone (novantrone) alone or in combination. Mitoxantrone was administered intravenously once at the beginning of the treatments at a dose of 2 mg/kg (FIG. 5A) or once a week for four weeks at a reduced dose of 0.8 mg/kg (FIG. 5B). All treatments were stopped at day 42 (FIG. 5A) or 38 (FIG. 5B), respectively. A day after the last treatment, tumours were excised from the animals and their weights were measured.

[2] = system: A498 human kidney cancer cells; test: A498 kidney tumour xenograft in SCID mice, controls and chemotherapeutics (Example 7); conditions: oligonucleotides 10 mg/kg/2 days i.v., 5-FU 13 mg/kg/day×5, vinblastine 1 mg/kg/week, gemcitabine 100 mg/kg/week
Text: (§1) CD-1 athymic female nude mice, BALB/c nu/nu nude mice, SCID, and SCID beige mice were purchased from Charles River Laboratories (Montreal, Canada) and experiments were typically initiated when the mice were 6-7 weeks old. […] Each experimental group typically contained 10 mice. After the size of tumour reached a mean tumour volume of 50-100 mm^3, treatment was initiated. […] Anti-tumour activity was estimated by the measurement of tumour volume with a calliper at two-three day intervals. Tumour volume was calculated by a formula L×W×H/2, where L indicates length, W indicates width and H indicates height. Within 24 hours after the last treatment, the animals were sacrificed and tumour and body weights were measured. Results of statistical analyses of the data are presented as P values in the figure legends.
Three additional treatment groups received: 5-FU (13 mg/kg/day×5), vinblastine (1 mg/kg/week) and gemcitabine (100 mg/kg/week). […] Caliper measurements at 1-week intervals were used to calculate tumour volumes. Each point in FIG. 28C represents mean tumour volume calculated from 10 animals per experimental group (with the exception of SEQ ID NO: 1 which was 8 animals). […] After 54 days the mice were sacrificed and the A498 tumours weighed. Each bar represents the mean tumour weight and standard error calculated for each treatment group.

[3] = system: Caki-1 human kidney cancer cells; test: Caki-1 kidney tumour xenograft in SCID mice, controls and chemotherapeutics (Example 7)
Text: as §1
Three additional treatment groups received: 5-FU (13 mg/kg/day×5), vinblastine (1 mg/kg/week) and gemcitabine (100 mg/kg/week). […] Calliper measurements at 1-week intervals were used to calculate tumour volumes. Each point in FIG. 28A represents mean tumour volume calculated from 10 animals per experimental group (with the exception of SEQ ID NO:1 which was 8 animals).
After 49 days the mice were sacrificed and the tumours weighed. Each bar represents the mean tumour weight and standard error calculated for each treatment group.

[4] = system: A498 human kidney cancer cells; test: A498 kidney tumour growth in SCID mice (3.9)
Procedure: Treatments lasted for 14 days thereafter. Antitumour activities were estimated by the inhibition of tumour volume, which was measured with a caliper on four different occasions over the treatment period. Each point represents mean tumour volume calculated from 5 animals per experimental group. […] Control animals (control) received saline alone for the same period. At the end of the treatments, the animals were sacrificed, tumours were excised and their weights were measured. Each bar represents mean tumour weight calculated from 6 animals per experimental group. […] Treatments lasted for 24 days thereafter. Antitumour activities were estimated by the inhibition of tumour volume, which was measured with a caliper at two-day intervals over the treatment period. Each point represents mean tumour volume calculated from 4 animals per experimental group. […] Treatments lasted for 24 days thereafter. Antitumour activities were estimated by the inhibition of tumour volume, which was measured with a caliper at two-day intervals over the treatment period. Each point represents mean tumour volume calculated from 4 animals per experimental group. […] Each point represents mean tumour volume calculated from 5 animals per experimental group. […] Antitumour activities were estimated by the inhibition of tumour volume, which was measured with a caliper on four different occasions over 16-day period. […]

[5] = system: SK-OV-3 human ovary adenocarcinoma cells; test: SK-OV-3 ovary tumour xenograft in CD-1 nude mice, combination with taxol or cisplatin (1.8); conditions: SEQ ID NO:1 10 mg/kg i.v. every other day 17 times
Procedure: After 52 days the mice were sacrificed and the tumours weighed. […] Mitoxantrone was administered intravenously once at the beginning of the treatments at a dose of 2 mg/kg (FIG. 4A) or once a week for four weeks at a reduced dose of 0.8 mg/kg (FIG. 4B). All treatments were stopped at day 50 (FIG. 4A) or 48 (FIG. 4B), respectively. […] Mitoxantrone was administered intravenously once at the beginning of the treatments at a dose of 2 mg/kg (FIG. 5A) or once a week for four weeks at a reduced dose of 0.8 mg/kg (FIG. 5B). All treatments were stopped at day 42 (FIG. 5A) or 38 (FIG. 5B), respectively. […] A2058 is a metastatic melanoma cell line. […] All treatments were stopped at day 24. […] Taxol was administered intravenously once a week at a dose of 10 mg/kg for three (FIG. 7A) or four weeks (FIG. 7C). Doxorubicin was administered intravenously once a week at a dose of 5 mg/kg for first three weeks (FIG. 7A) or for two weeks (FIG. 7C). All treatments were stopped at day 33 (FIG. 7A) or at day 26 (FIG. 7C), respectively. […] In FIG. 7C, antitumour activities were estimated by the inhibition of tumour volume, which was measured with calipers. Each point represents mean tumour volume calculated from 10 animals per experimental group. […] Taxol was administered intravenously once a week for first three weeks and intraperitoneally once a week for next two weeks at a dose of 10 mg/kg. Cisplatin was administered intravenously once a week for first three weeks and intraperitoneally once a week for next two weeks at a dose of 4 mg/kg. All treatments were stopped at day 40. Antitumour activities were estimated by the inhibition of tumour volume, which was measured with caliper. Each point represents mean tumour volume calculated from 9 animals per experimental group.

In the case of “5′-GGCTAAATCGCTCCACCAAG-3′ (all phosphorothioate, sugars by position and methylation of C not given here) [SEQ ID NO: 1, fully phosphorothioated antisense oligonucleotide that hybridizes to the coding region of R2 mRNA]”, the “Antitumour effect (tumour weight, FIG. 4A)” value [1] was “significant delay of tumour growth compared to saline control”, the “Effect on tumour growth (volume and weight)” value [2] was “dramatic inhibition in growth of Caki-1 and A498 renal tumours; also recorded: superior to any of these compounds” and the “Effect on tumour growth (volume and weight)” value ([3]; Caki-1, SCID mice, oligonucleotides 10 mg/kg/2 days i.v.) was “exceptional efficacy against renal cell carcinomas; also recorded: dramatic inhibition in growth of Caki-1 and A498 renal tumours; also recorded: superior to any of these compounds”. For the same substance, the “Time of treatment to complete tumour regression” value ([3]; renal tumours, SCID mice, 10 mg/kg/2 days i.v., day 28 post implantation of tumour) was no more than 3 weeks, the “Inhibitory effect on tumour growth (tumour volume, FIG. 21B)” value ([4]; A498, SCID mice, 10 mg/kg i.v. every other day to day 52) was “powerful inhibitory effects on the growth of human renal carcinoma cells, resulting in total regression of the tumours” and the Tumour regression ([4]; Human Renal Carcinoma^2 (third entry of Table 5)) was “Complete regression of all tumours in treated”. The “tumour volume data as percentage of saline control” value ([5]; SK-OV-3 (ovary), CD-1, Taxol 10 mg/kg weekly, Cisplatin 4 mg/kg weekly) was 42% and the “Antitumour effect (tumour volume, FIG. 8)” value ([5]; SK-OV-3, CD-1 nude mice, taxol 10 mg/kg, cisplatin 4 mg/kg weekly) was “significant delay of tumour growth compared to saline control”.
